Consider four compounds from patent US9873709B2 (priority 2013, dated 2018).

Experiment [1] deals with JAK1-dependent STAT6 phosphorylation downstream of IL-13 stimulation in TF-1 human erythroleukemia cells. As to the kind of experiment: cells. As to conditions: TF-1, read-out: IL-13-pSTAT6 IC50.
Experiment [2] concerns the target isolated recombinant JAK2 kinase domain (Homo sapiens (Human), UniProt O60674). As to the kind of experiment: biochemical.
Experiment [3] has as its system JAK1-dependent STAT6 phosphorylation downstream of IL-13 stimulation in BEAS-2B human bronchial epithelial cells. In words: cells. The settings on record: read-out: IL13-pSTAT6 BEASB2B IC50.
Experiment [4] deals with JAK1-dependent STAT6 phosphorylation downstream of IL-13 stimulation in TF-1 human erythroleukemia cells. As to conditions: read-out: IL-13-pSTAT6 IC50, TF-1 cells.

Where two headings read alike, the source gives them in different places.

Sequence of isolated recombinant JAK2 kinase domain (O60674 849-1124): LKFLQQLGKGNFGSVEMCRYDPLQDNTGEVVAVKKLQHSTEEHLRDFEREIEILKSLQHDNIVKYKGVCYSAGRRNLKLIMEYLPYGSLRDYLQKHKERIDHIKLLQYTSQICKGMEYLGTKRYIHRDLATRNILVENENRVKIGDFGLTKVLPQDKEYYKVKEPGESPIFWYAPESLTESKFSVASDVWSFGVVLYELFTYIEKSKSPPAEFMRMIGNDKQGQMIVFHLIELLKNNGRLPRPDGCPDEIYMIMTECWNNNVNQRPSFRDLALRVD

By IC50 is commonly meant the concentration needed to halve the response being measured. The term Ki denotes a dissociation constant, usually derived from enzyme kinetics or from competition with a known ligand. With `O=C(c1ccc(Nc2nc3c(N4CCC(O)(c5ccc(Cl)cc5)CC4)cccn3n2)cc1)N1CCNCC1` [Example 1-177, [4-[[8-[4-(4-chlorophenyl)-4-hydroxy-1-piperidyl]-[1,2,4]triazolo[1,5-a]pyridin-2-yl]amino]phenyl]-piperazin-1-yl-methanone], in experiment [1], the half-inhibitory concentration (IC50) stood at 0.0232 µM. Besides, in experiment [2], the inhibitory constant (Ki) came to 0.00151 µM.

Turning to `CNC1CN(C(=O)c2ccc(Nc3nc4c(N5CCC(CO)(c6ccc(Cl)cc6)CC5)cccn4n3)cc2)C1` [Example 1-283, [4-[[8-[4-(4-chlorophenyl)-4-(hydroxymethyl)-1-piperidyl]-[1,2,4]triazolo[1,5-a]pyridin-2-yl]amino]phenyl]-[3-(methylamino)azetidin-1-yl]methanone], the values for the IC50 in experiment [1] and in experiment [3] were 0.0155 µM and 0.0313 µM, respectively. Besides, the inhibition constant Ki in experiment [2] is 0.00015 µM.

Take `CN1CCC(N(C)C(=O)c2ccc(Nc3nc4c(C5=CCN(C(=O)C6CCC(C#N)CC6)CC5)cccn4n3)cc2)CC1` (stereo not shown) [Example 2-285, 4-[[8-[1-(4-cyanocyclohexanecarbonyl)-3,6-dihydro-2H-pyridin-4-yl]-[1,2,4]triazolo[1,5-a]pyridin-2-yl]amino]-N-methyl-N-(1-methyl-4-piperidyl)benzamide]: the IC50 in experiment [4] turned out to be 0.739 µM.

Turning to `CNC(=O)C1CN(C(C)C)CCN1C(=O)c1ccc(Nc2nc3c(C4=CCN(C(=O)CCC(F)(F)F)CC4)cccn3n2)cc1` (stereo not shown) [Example 2-327, 4-isopropyl-N-methyl-1-[4-[[8-[1-(4,4,4-trifluorobutanoyl)-3,6-dihydro-2H-pyridin-4-yl]-[1,2,4]triazolo[1,5-a]pyridin-2-yl]amino]benzoyl] piperazine-2-carboxamide], the 50% inhibitory concentration (IC50) in experiment [4] amounted to 0.0199 µM.
